Source: ChEMBL document CHEMBL5131517 (ACS Med Chem Lett, 2022)

Experiments:
[1] = biological target: T1, 5-hydroxytryptamine receptor 2B (Homo sapiens, UniProt P41595); assay: Agonist activity at human 5HT2B receptor stably expressed in Flp-In-T-REx-293 cells assessed as increase in Gq-mediated calcium flux by Fluo-4 direct dye based FLIPR Tetra assay; type: functional, cell-based; conditions: read-out: EC50
[2] = biological target: T2, 5-hydroxytryptamine receptor 2C (Homo sapiens) (UniProt P28335); assay: Agonist activity at human 5HT2C receptor stably expressed in Flp-In-T-REx-293 cells assessed as maximal Gq-mediated calcium flux by Fluo-4 direct dye based FLIPR Tetra assay relative to control; type: functional, cell-based
T2 sequence (whole entry): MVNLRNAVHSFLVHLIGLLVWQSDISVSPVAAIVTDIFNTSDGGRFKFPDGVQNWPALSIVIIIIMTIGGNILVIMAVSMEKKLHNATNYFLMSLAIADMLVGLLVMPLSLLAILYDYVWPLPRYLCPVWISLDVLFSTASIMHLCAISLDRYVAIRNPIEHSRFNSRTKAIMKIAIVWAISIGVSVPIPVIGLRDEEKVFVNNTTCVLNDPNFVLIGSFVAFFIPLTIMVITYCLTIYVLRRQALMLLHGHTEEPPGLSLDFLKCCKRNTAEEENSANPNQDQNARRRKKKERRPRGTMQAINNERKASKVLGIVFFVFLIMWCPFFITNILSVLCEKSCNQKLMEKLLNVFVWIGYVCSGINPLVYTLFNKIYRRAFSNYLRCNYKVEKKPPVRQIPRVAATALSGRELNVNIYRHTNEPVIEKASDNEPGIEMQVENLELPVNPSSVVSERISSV

[3] = biological target: T3, 5-hydroxytryptamine receptor 2A (Homo sapiens, UniProt P28223); assay: Agonist activity at human 5HT2A receptor stably expressed in Flp-In-T-REx-293 cells assessed as increase in Gq-mediated calcium flux by Fluo-4 direct dye based FLIPR Tetra assay; type: functional, cell-based
[4] = biological target: T1, 5-hydroxytryptamine receptor 2B; assay: Agonist activity at human 5HT2B receptor stably expressed in Flp-In-T-REx-293 cells assessed as maximal Gq-mediated calcium flux by Fluo-4 direct dye based FLIPR Tetra assay relative to control; type: functional, cell-based
[5] = biological target: T4, 5-hydroxytryptamine receptor 2C (Homo sapiens, UniProt P28335); assay: Agonist activity at human 5HT2C receptor stably expressed in Flp-In-T-REx-293 cells assessed as increase in Gq-mediated calcium flux by Fluo-4 direct dye based FLIPR Tetra assay; type: functional, cell-based
T4 sequence (P28335 whole entry): T2 sequence (whole entry)

[6] = biological target: T3, 5-hydroxytryptamine receptor 2A; assay: Agonist activity at human 5HT2A receptor stably expressed in Flp-In-T-REx-293 cells assessed as maximal Gq-mediated calcium flux by Fluo-4 direct dye based FLIPR Tetra assay relative to control; type: functional, cell-based
[7] = Drug metabolism in BALB/c mouse liver microsome S9 fraction assessed as [M+16] metabolite formation prewarmed for 5 mins followed by NADPH addition measured over 1 hrs by LCMS analysis; type: ADME; conditions: microsomes, 1.083 h, time 65 min

T1 sequence (P41595 whole entry): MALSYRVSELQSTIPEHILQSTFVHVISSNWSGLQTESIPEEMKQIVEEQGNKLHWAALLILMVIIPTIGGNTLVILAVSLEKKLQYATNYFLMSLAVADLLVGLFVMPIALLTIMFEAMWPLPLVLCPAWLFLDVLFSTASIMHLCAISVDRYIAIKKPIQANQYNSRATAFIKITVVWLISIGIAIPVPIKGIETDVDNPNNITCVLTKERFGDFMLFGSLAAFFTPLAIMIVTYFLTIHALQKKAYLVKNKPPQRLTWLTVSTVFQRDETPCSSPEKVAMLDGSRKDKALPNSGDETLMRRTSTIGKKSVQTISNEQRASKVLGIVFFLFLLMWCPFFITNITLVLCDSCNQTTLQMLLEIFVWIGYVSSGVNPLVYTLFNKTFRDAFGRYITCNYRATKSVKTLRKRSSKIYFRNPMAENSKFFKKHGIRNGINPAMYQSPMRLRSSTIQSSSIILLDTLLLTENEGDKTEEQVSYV
T3 sequence (P28223 whole entry): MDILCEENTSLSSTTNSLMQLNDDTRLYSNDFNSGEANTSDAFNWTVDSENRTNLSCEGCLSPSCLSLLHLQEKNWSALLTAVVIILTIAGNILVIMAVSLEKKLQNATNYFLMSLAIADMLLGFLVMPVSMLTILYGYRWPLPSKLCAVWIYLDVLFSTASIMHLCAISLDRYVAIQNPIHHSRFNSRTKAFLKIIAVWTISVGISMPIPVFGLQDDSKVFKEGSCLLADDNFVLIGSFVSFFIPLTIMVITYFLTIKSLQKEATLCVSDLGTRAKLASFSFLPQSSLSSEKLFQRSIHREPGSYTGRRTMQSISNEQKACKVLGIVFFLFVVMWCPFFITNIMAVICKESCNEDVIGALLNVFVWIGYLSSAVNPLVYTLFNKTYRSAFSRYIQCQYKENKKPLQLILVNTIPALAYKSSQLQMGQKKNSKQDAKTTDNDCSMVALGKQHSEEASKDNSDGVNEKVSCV

| Molecule | EC50 [1] [nM] | Emax ([2]; filed as agonist) [%] | EC50 [3] [nM] | Emax ([4]; filed as agonist) [%] | EC50 ([5]; read-out: EC50) [nM] | Emax ([6]; filed as agonist) [%] | Emax [6] [%] | Drug metabolism [7] | Emax [4] [%] | EC50 ([5]; read-out: pEC50 (converted)) [nM] | Emax [2] [%] |
| --- | --- | --- | --- | --- | --- | --- | --- | --- | --- | --- | --- |
| Oc1ccc(Br)cc1C1NCCc2c1[nH]c1ccc(F)cc21 (centres undefined) | 338 | 101 | 1110 | 111 | 376 | 80.8 |  |  |  |  |  |
| Oc1c(Cl)cccc1C1NCCc2c1[nH]c1ccc(F)cc21 (centres undefined) | 88 | 99.2 | 273 | 96.2 | 78 | 65.3 |  |  |  |  |  |
| COc1ccc(C2NCCc3c2[nH]c2ccc(F)cc32)c(OC)c1 (centres undefined) | 98 | 100 | 167 | 91.3 | 159 | 45.6 |  |  |  |  |  |
| Oc1cc(Cl)ccc1C1NCCc2c1[nH]c1ccc(F)cc21 (centres undefined) | 128 | 107 | 229 | 105 | 209 | 73.2 |  |  |  |  |  |
| Cc1ccc(O)c(C2NCCc3c2[nH]c2ccc(Cl)cc32)c1 (centres undefined) | 4270 |  |  | 106 |  |  |  |  |  |  |  |
| Cc1ccc(O)c(C2NCCc3c2[nH]c2ccc(F)cc32)c1 (centres undefined) | 316 | 99.2 | 1230 | 115 | 446 |  | 36.8 |  |  |  |  |
| COc1ccc(OC)c(C2NCCc3c2[nH]c2ccc(F)cc32)c1 (centres undefined) | 588 | 55.3 | > 10000 | 52.1 | 1600 |  |  |  |  |  |  |
| COc1ccc(C2NCCc3c2[nH]c2ccc(Cl)cc32)cc1OC (centres undefined) | 34 | 99.3 | 81 | 102 | 123 | 96 |  |  |  |  |  |
| COc1ccc(C2NCCc3c2[nH]c2ccc(F)cc32)cc1OC (centres undefined) | 102 | 103 | 254 | 89.8 | 152 | 83.2 |  |  |  |  |  |
| Cc1ccc(C2NCCc3c2[nH]c2ccc(F)cc32)c(C)c1 (centres undefined) | 537 | 104 | 363 | 107 | 159 | 47.8 |  |  |  |  |  |
| RAUWOLFIA SERPENTINA |  |  |  |  |  |  |  | Metabolite_Detected |  |  |  |
| Oc1cc(Br)ccc1C1NCCc2c1[nH]c1ccc(F)cc21 (centres undefined) | 59 | 111 | 147 | 112 | 95 | 98 |  |  |  |  |  |
| Oc1cc(Br)ccc1C1NCCc2c1[nH]c1ccc(Cl)cc21 (centres undefined) | 204 | 107 | 537 | 106 | 794 | 94.5 |  |  |  |  |  |
| Oc1ccc(O)c(C2NCCc3c2[nH]c2ccc(F)cc32)c1 (centres undefined) | 25 | 120 | 72 | 102 | 42 | 95.2 |  |  |  |  |  |
| Oc1ccc(Cl)cc1C1NCCc2c1[nH]c1ccc(Cl)cc21 (centres undefined) | 2000 | 58.9 | > 10000 | 111 | 3560 |  |  |  |  |  |  |
| COc1ccc(OC)c(C2NCCc3c2[nH]c2ccc(Cl)cc32)c1 (centres undefined) | 416 | 42.4 | 1820 |  | 2690 |  | 14.4 |  | 32 |  |  |
| Oc1c(Cl)cccc1C1NCCc2c1[nH]c1ccc(Cl)cc21 (centres undefined) | 106 | 94 | 336 | 95.9 | 176 | 70.1 |  |  |  |  |  |
| Oc1cc(Cl)ccc1C1NCCc2c1[nH]c1ccc(Cl)cc21 (centres undefined) | 25 | 102 | 52 | 109 | 47 | 98.5 |  |  |  |  |  |
| Cc1noc(C)c1C1NCCc2c1[nH]c1ccc(Cl)cc21 (centres undefined) |  | 104 | 513 |  | 191 | 84.5 |  |  |  |  |  |

| Molecule | EC50 [1] [nM] | Emax ([2]; filed as agonist) [%] | EC50 [3] [nM] | Emax ([4]; filed as agonist) [%] | EC50 ([5]; read-out: EC50) [nM] | Emax ([6]; filed as agonist) [%] | Emax [6] [%] | Drug metabolism [7] | Emax [4] [%] | EC50 ([5]; read-out: pEC50 (converted)) [nM] | Emax [2] [%] |
| --- | --- | --- | --- | --- | --- | --- | --- | --- | --- | --- | --- |
| Clc1ccc2[nH]c3c(c2c1)CCNC3C(c1ccccc1)c1ccccc1 (centres undefined) |  | 106 | 1350 |  | 3240 | 88.1 |  |  |  | 0.324 |  |
| Oc1cccc(C2NCCc3c2[nH]c2ccc(Cl)cc32)c1 (centres undefined) |  | 67.4 | 3300 |  | 688 | 49.1 |  |  |  |  |  |
| CCC1NCCc2c1[nH]c1ccc(Cl)cc21 (centres undefined) |  | 80.8 | 398 |  | 7940 | 74.3 |  |  |  |  |  |
| COc1ccccc1C1NCCc2c1[nH]c1ccc(Cl)cc21 (centres undefined) |  | 82.9 | 207 |  | 284 | 41.6 |  |  |  |  |  |
| Oc1ccc(C2NCCc3c2[nH]c2ccc(F)cc32)cc1 (centres undefined) |  | 104 | 58.2 |  | 29.8 | 99.9 |  |  |  | 30.2 |  |
| Oc1ccc2[nH]c3c(c2c1)CCNC3c1ccc(Br)cc1O (centres undefined) |  | 100 | 364 |  | 173 | 67.8 |  |  |  |  |  |
| Cc1cccc(C2NCCc3c2[nH]c2ccc(O)cc32)c1 (centres undefined) |  | 99.1 | 244 |  | 191 | 60.9 |  |  |  |  |  |
| Fc1ccccc1C1NCCc2c1[nH]c1ccc(Cl)cc21 (centres undefined) |  |  | 8000 |  | 1160 |  | 23.2 |  |  |  | 13.9 |
| Cc1cccc(C2NCCc3c2[nH]c2ccc(Cl)cc32)c1 (centres undefined) |  | 89.1 | 481 |  | 256 | 63.1 |  |  |  |  |  |
| Oc1cccc(C2NCCc3c2[nH]c2ccc(F)cc32)c1 (centres undefined) |  | 123 | 208 |  | 130 | 83.2 |  |  |  |  |  |
| Cc1ccc(C2NCCc3c2[nH]c2ccc(Cl)cc32)c(C)c1 (centres undefined) | 977 | 99.2 | 562 | 89.4 | 407 | 69.8 |  |  |  |  |  |
| Cc1ccc(C2NCCc3c2[nH]c2ccc(O)cc32)cc1 (centres undefined) |  | 95 | 312 |  | 1130 |  | 11.2 |  |  |  |  |
| COc1ccc(C2NCCc3c2[nH]c2ccc(O)cc32)c(O)c1 (centres undefined) |  | 114 | 0.5 |  | 0.8 | 103 |  |  |  |  |  |
| Clc1ccc2[nH]c3c(c2c1)CCNC3c1cncnc1 (centres undefined) |  |  | 898 |  | 420 |  | 32.1 |  |  |  | 38.7 |
| COc1ccc2cc(C3NCCc4c3[nH]c3ccc(Cl)cc43)ccc2c1 (centres undefined) |  | 93.7 | 1320 |  | 1060 | 66.8 |  |  |  |  |  |
| Oc1ccc(Br)cc1C1NCCc2c1[nH]c1ccc(Cl)cc21 (centres undefined) | 457 | 95.2 | 812 | 111 | 1320 | 79.7 |  |  |  |  |  |
| Clc1ccc2[nH]c3c(c2c1)CCNC3CCc1ccccc1 (centres undefined) |  | 98.5 | 64 |  | 15.8 | 101 |  |  |  |  |  |
| Cc1cccc(C2NCCc3c2[nH]c2ccc(F)cc32)c1 (centres undefined) |  | 114 | 160 |  | 306 |  | 39.9 |  |  |  |  |
